Data reported in patent US12180187B2, “1-phenyl-5-azinylpyrazolyl-3-oxyalkyl acids and their use for controlling unwanted plant growth” (BAYER AKTIENGESELLSCHAFT, priority 2019, dated 2024).
Several values for one entry are separate records, joined by “and”; a condition that tells them apart may be missing. Equal values may be shown once.

Legend:
VIOTR = test: Pre-emergence action at 320 g/ha against VIOTR; assay type: in vivo, Viola tricolor; settings: dosage 320 g/ha; for pest or weed control at 320 g/ha: Viola tricolor, 504 h
Procedure, shortened: (§1)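 Visual % scoring at about 3 weeks post-treatment against untreated pots (0% = like control, 100% = dead), greenhouse-grown. Compounds applied at 320 g/ha as aqueous WP/EC suspension or emulsion plus 0.5% additive, 600 l/ha water, onto covering soil of freshly sown pots before emergence.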

VERPE = test: Pre-emergence action against VERPE, 1280 g/ha; assay type: in vivo, Veronica persica; settings: scored visually after about 3 weeks vs untreated controls (100% = plants have died); for pest or weed control at 1280 g/ha: Veronica persica, 504 h
Procedure, shortened: (§2)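 Mono- and dicot weed seeds sown in sandy loam were treated on the covering soil surface with WP or EC formulations plus 0.5% additive at 600 L water/ha. Pots stayed in a greenhouse; damage was scored visually after ~3 weeks as percent versus untreated controls (100% = dead).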

POLCO = test: Post-emergence action at 320 g/ha against POLCO; assay type: in vivo, Fallopia convolvulus (Polygonum convolvulus); settings: visual rating about 3 weeks after treatment vs untreated controls; for pest or weed control at 320 g/ha: Fallopia convolvulus, 504 h
Procedure, shortened: (§3)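 Weeds were sown in sandy loam, grown in a greenhouse and sprayed at the one-leaf stage, 2 to 3 weeks after sowing, with WP or EC formulations as aqueous suspension or emulsion plus 0.5% additive at 600 l/ha water. Activity was rated visually after about 3 weeks against untreated controls (100% = plants dead, 0% = like control).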

AMARE [1] = test: Post-emergence action at 320 g/ha against AMARE; assay type: in vivo, Amaranthus retroflexus; settings: visual rating about 3 weeks after treatment vs untreated controls; for pest or weed control at 320 g/ha: Amaranthus retroflexus, 504 h
Procedure, shortened: as §3

STEME = test: Post-emergence action against STEME, 1.28 kg/ha; assay type: in vivo, Stellaria media; settings: dosage 1280 g/ha, visual rating about 3 weeks after treatment vs untreated controls (100% = plants died)
Procedure, shortened: (§4)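 Percent activity was scored visually ~3 wk post-spray relative to untreated plants. Treatment was post-emergence at the one-leaf stage using WP/EC in water with 0.5% additive (600 L/ha).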

PHBPU [2] = test: Pre-emergence action at 320 g/ha against PHBPU; assay type: in vivo; settings: visual scoring after about 3 weeks vs untreated controls
Procedure, shortened: as §1

HORMU = test: Post-emergence action at 320 g/ha against HORMU; assay type: in vivo, Hordeum murinum; settings: visual rating about 3 weeks after treatment vs untreated controls
Procedure, shortened: as §3

DIGSA = test: Pre-emergence action against DIGSA, 1280 g/ha; assay type: in vivo, Digitaria sanguinalis; settings: visual scoring after about 3 weeks vs untreated controls, 100% = plants have died, 0% = like control plants
Procedure, shortened: as §2

ALOMY = test: Pre-emergence action against ALOMY, 1280 g/ha; assay type: in vivo, Alopecurus myosuroides; settings: visual scoring after about 3 weeks vs untreated controls, 100% = plants have died, 0% = like control plants
Procedure, shortened: as §2

AVEFA = test: Post-emergence action at 320 g/ha against AVEFA; assay type: in vivo; settings: visual rating about 3 weeks after treatment vs untreated controls; for pest or weed control at 320 g/ha: Avena fatua, 504 h
Procedure, shortened: as §3

ECHCG = test: Post-emergence action at 320 g/ha against ECHCG; assay type: in vivo, Echinochloa crus-galli; settings: dosage 320 g/ha, visual rating about 3 weeks after treatment vs untreated controls (100% = plants died)
Procedure, shortened: as §3

PHBPU [3] = test: Post-emergence action at 320 g/ha against PHBPU; assay type: in vivo; settings: visual rating about 3 weeks after treatment vs untreated controls
Procedure, shortened: as §3

AMARE [4] = test: Post-emergence action against AMARE, 1.28 kg/ha; assay type: in vivo, Amaranthus retroflexus; settings: dosage 1280 g/ha, visual rating about 3 weeks after treatment vs untreated controls (100% = plants died)
Procedure, shortened: as §4

ECHGC = test: Pre-emergence action at 320 g/ha against ECHGC; assay type: in vivo, Echinochloa crus-galli; settings: visual scoring after about 3 weeks vs untreated controls
Procedure, shortened: as §1

KCHSC [5] = test: Post-emergence action against KCHSC, 1.28 kg/ha; assay type: in vivo, Bassia scoparia; settings: dosage 1280 g/ha, visual rating about 3 weeks after treatment vs untreated controls (100% = plants died)
Procedure, shortened: as §4

ABUTH = test: Post-emergence action against ABUTH, 1.28 kg/ha; assay type: in vivo, Abutilon theophrasti; settings: dosage 1280 g/ha, visual rating about 3 weeks after treatment vs untreated controls (100% = plants died)
Procedure, shortened: as §4

KCHSC [6] = test: Pre-emergence action against KCHSC, 1280 g/ha; assay type: in vivo, Bassia scoparia; settings: scored visually after about 3 weeks vs untreated controls (100% = plants have died)
Procedure, shortened: as §2

Row | SMILES | pest or weed control at 320 g/ha (VIOTR) | pest or weed control at 1280 g/ha (VERPE) | pest or weed control at 320 g/ha (POLCO) | pest or weed control at 320 g/ha (AMARE [1]) | Post-emergence action against STEME (STEME) | Pre-emergence action against PHBPU in % (PHBPU [2]) | Post-emergence action against HORMU in % (HORMU) | Pre-emergence action against DIGSA (DIGSA) | Pre-emergence action against ALOMY (ALOMY) | pest or weed control at 320 g/ha (AVEFA) | Post-emergence action at 320 g/ha against ECHCG in % (ECHCG) | Post-emergence action against PHBPU in % (PHBPU [3]) | Post-emergence action against AMARE (AMARE [4]) | Pre-emergence action against ECHGC in % (ECHGC) | Post-emergence action against ABUTH (ABUTH) | Pre-emergence action against VIOTR in % (VIOTR) | Pre-emergence action against VERPE (VERPE) | Post-emergence action against POLCO in % (POLCO) | Post-emergence action against AMARE in % (AMARE [1]) | Post-emergence action against AVEFA in % (AVEFA) | other results
1 | O=C(O)COc1nn(-c2ccccc2F)c(-c2cncnc2)c1Br [VI-007, {[4-Bromo-1-(2-fluorophenyl)-5-(pyrimidin-5-yl)-1H-pyrazol-3-yl]oxy}acetic Acid] | 100% | 90% | 80% | 80% | 100% | 90% | 90% | 100% | 90% | 100% | 80% | 90% |  |  |  |  |  |  |  |  | 
2 | O=C(O)COc1nn(-c2ccccc2F)c(-c2ccc(F)nc2)c1Br [VII-003, {[4-Bromo-1-(2-fluorophenyl)-5-(6-fluoropyridin-3-yl)-1H-pyrazol-3-yl]oxy}acetic acid] | 100% | 90% | 90% | 90% | 100% | 90% | 90% | 100% | 90% | 80% | 90% | 90% | 100% | 100% |  |  |  |  |  |  | 
3 | CCOC(=O)COc1nn(-c2ccccc2F)c(-c2ccc(F)nc2)c1Br [VII-012, Ethyl {[4-bromo-1-(2-fluorophenyl)-5-(6-fluoropyridin-3-yl)-1H-pyrazol-3-yl]oxy}acetate] | 100% | 100% | 90% | 90% | 100% | 90% and 80% | 90% | 100% | 100% and 90% | 90% | 90% | 90% and 80% | 100% and 90% | 100% | 100% |  |  |  |  |  | Post-emergence action against KCHSC (KCHSC [5]): 90%
4 | CCOC(=O)COc1nn(-c2ccc(F)cc2F)c(-c2ccc(F)nc2)c1Cl [VII-016] |  |  |  |  | 100% | 90% | 80% |  |  |  | 80% | 90% | 90% | 100% | 90% | 90% | 90% | 90% | 90% | 80% | 
5 | CCOC(=O)C(C)Oc1nn(-c2ccccc2F)c(-c2ccc(F)nc2)c1Br (centres unmarked) [VII-019] |  |  |  |  | 100% | 90% | 100% | 100% | 90% |  | 90% | 90% | 90% | 100% |  | 100% | 100% | 90% | 80% | 100% | Pre-emergence action against KCHSC (KCHSC [6]): 100%; Post-emergence action against KCHSC (KCHSC [5]): 90%
6 | COC(=O)C(C)Oc1nn(-c2ccccc2)c(-c2ccc(F)nc2)c1Cl (centres unmarked) [VII-023, Methyl 2-{[4-chloro-5-(6-fluoropyridin-3-yl)-1-phenyl-1H-pyrazol-3-yl]oxy}propanoate] | 100% | 100% | 90% | 90% | 100% |  | 90% | 90% |  | 80% | 80% | 90% |  | 90% |  |  |  |  |  |  | 
7 | COC(=O)COc1nn(-c2ccc(F)cc2)c(-c2cccnc2)c1Br [VII-028] |  |  |  |  | 100% | 100% | 80% |  |  |  | 80% | 90% | 100% | 80% | 90% | 100% | 90% |  | 80% | 80% | 
8 | COC(=O)C(C)Oc1nn(-c2ccccc2)c(-c2cccnc2)c1Cl (centres unmarked) [VII-032] |  |  |  |  | 100% | 100% | 90% | 90% |  |  | 90% | 90% | 100% | 90% | 90% | 100% | 100% | 80% | 90% | 100% | 
9 | O=C(O)COc1nn(-c2ccccc2F)c(-c2ccnc(F)c2)c1Br [VIII-004] |  |  |  |  | 100% |  | 90% |  |  |  | 90% | 90% | 90% | 90% |  | 90% | 90% | 80% | 90% | 100% | 
